# Data as given in US20200338045A1, “ISOINDOLINE COMPOSITIONS AND METHODS FOR TREATING NEURODEGENERATIVE DISEASE” (priority 2017, published 2020).
# “Also recorded” adds a separate entry of the source.
# Legend:
# Type in all cases: in vivo, human
# [1] = tested on: neurogranin, Aβ, tau, NFL in CSF; assay: CSF Alzheimer's disease biomarkers by ELISA (COG0102); conditions: for neurogranin reduced: 28 days
# Method: This trial (ClinicalTrials.gov NCT02907567) was a randomized, double-blind, placebo-controlled clinical trial in mild to moderate Alzheimer's patients (MMSE 18-26) (See FIG. 1 for clinical trial design). The trial was conducted at six sites in Australia. Patients were randomized into placebo (n=5) or CT1812-treated groups: 90 mg (n=4), 280 mg (n=5) or 560 mg (n=5) and treated once daily for 28 days. Clinical chemistry was done at Sydpath (Sydney, AU). Pharmacokinetics were done at CPR Pharma Services (Adelaide, AU). Cerebrospinal fluid samples were taken at screening and day 21-28 of treatment and aliquoted. Plasma samples were taken at screening or Day 1 (one sample) and day 14-28, then spun down to separate plasma and aliquoted. One set of CSF samples was analyzed for Alzheimer's disease biomarkers; protein measurements (Aβ42, A1340, total tau, tau phosphorylated at threonine 181 (phosphorylated tau), NFL and neurogranin) were performed using commercially available ELISA assays from Fujirebio according to the manufacturer's instructions (INNOTEST β-AMYLOID(1-42), INNOTEST β-AMYLOID(1-40), INNOTEST hTau Ag, INNOTEST PHOSPHO-TAU(181P), Uman Diagnostics NFL assay). Neurogranin was measured with a sandwich ELISA method using antibodies Ng2 and Ng22 developed at the University of Gotteborg (Kvartsberg et al. 2015). Identical aliquots of CSF, and plasma were analyzed for protein expression changes via LC/MSMS at Caprion (see below).
# [2] = Phase 1 SAD safety (adverse events, laboratory, ECG)
# Method: Part A was a single ascending dose cohort study in which healthy, young subjects (less than 65 years old) received one dose of study drug in the morning after an overnight fast. Cohort dosing started at 10 mg and increased to 30 mg, 90 mg, 180 mg, 450 mg, and 1120 mg in subsequent cohorts. Six drug-treated and two placebo-treated subjects were randomized in each cohort. A seventh cohort of six subjects each received a single 90 mg dose of drug 30 min. after a meal. Following completion of all safety assessments and blood draws for PK analyses, subjects were discharged on Day 3.
# Safety variables, including incidence of adverse events (AEs), vital signs, clinical laboratory findings, 12-lead electrocardiographs (ECGs), physical examination, and affective and cognitive measures (Part B only), were summarized for all subjects who received study drug.
# [3] = Phase 1 MAD CSF concentration of CT1812; conditions: for receptor occupancy associated with CSF CT1812 levels: extrapolated from transgenic mouse brain; for concentration at 1.5 h: human, cerebrospinal fluid, oral, 1.5 hr post dose, Day 7 to Day 9
# Text: CT1812 was quantitated in CSF using a validated LC-MS/MS method.
# [4] = Phase 1 MAD cognitive testing in healthy elderly cohort
# Method: The Alzheimer's Disease Assessment Scale-Cognition Subscale (ADAS-Cog 13) and a cognitive battery (including the category fluency test, controlled word association test, WMS-R digit span, digit symbol substitution test, and Rey Auditory Verbal Learning Test) were administered to subjects in the elderly cohort at baseline and on Day 14.
structure (smiles),measurement,setting,value
CC(C)(C)Oc1cc(CCC(C)(C)N2Cc3ccc(S(C)(=O)=O)cc3C2)ccc1O [CT1812],neurogranin reduced,[1]; 90 mg dose group,33%
same,"Neurogranin, With CT1812","[1]; ELISA, direction of change",reduced and decreased and ↓*
same,"Aβ, tau and NFL biomarker levels",[1]; before and after treatment,remain unchanged
same,neurogranin reduced,[1]; pooled CT1812-treated group,17.6%
same,ECG parameters or changes,[2]; SAD,No ECG parameters or changes were assessed as clinically significant
same,deaths or serious adverse events,[2]; SAD,no deaths or other serious adverse events
same,"All TEAEs, number of subjects",[2]; SAD Total Active (n = 42),18
same,"Headache, % of subjects",[2]; SAD Total Active (n = 42),(14%)
same,"Headache, number of subjects",[2]; SAD Total Active (n = 42),6
same,"Nausea, % of subjects",[2]; SAD Total Active (n = 42),(14%)
same,"Nausea, number of subjects",[2]; SAD Total Active (n = 42),6
same,"All TEAEs, % of subjects",[2]; single 10 mg fasted (n = 6),(33%)
same,"All TEAEs, number of subjects",[2]; single 10 mg fasted (n = 6),2
same,"Headache, % of subjects",[2]; single 10 mg fasted (n = 6),(50%)
same,"Headache, number of subjects",[2]; single 10 mg fasted (n = 6),3
same,"Nausea, % of subjects",[2]; single 10 mg fasted (n = 6),(17%)
same,"Nausea, number of subjects",[2]; single 10 mg fasted (n = 6),1
same,"All TEAEs, % of subjects",[2]; single 30 mg fasted (n = 6),(67%)
same,"All TEAEs, number of subjects",[2]; single 30 mg fasted (n = 6),4
same,"All TEAEs, % of subjects",[2]; single 90 mg fed (n = 6),(33%)
same,"All TEAEs, number of subjects",[2]; single 90 mg fed (n = 6),2
same,"Headache, % of subjects",[2]; single 90 mg fed (n = 6),(17%)
same,"Headache, number of subjects",[2]; single 90 mg fed (n = 6),1
same,"All TEAEs, % of subjects",[2]; single 180 mg fasted (n = 6),(33%)
same,"All TEAEs, number of subjects",[2]; single 180 mg fasted (n = 6),2
same,"All TEAEs, % of subjects",[2]; single 450 mg fasted (n = 6),(67%)
same,"All TEAEs, number of subjects",[2]; single 450 mg fasted (n = 6),4
same,"Headache, % of subjects",[2]; single 450 mg fasted (n = 6),(17%)
same,"Headache, number of subjects",[2]; single 450 mg fasted (n = 6),1
same,"Nausea, % of subjects",[2]; single 450 mg fasted (n = 6),(33%)
same,"Nausea, number of subjects",[2]; single 450 mg fasted (n = 6),2
same,"All TEAEs, % of subjects",[2]; single 1120 mg fasted (n = 6),(67%)
same,"All TEAEs, number of subjects",[2]; single 1120 mg fasted (n = 6),4
same,"Headache, % of subjects",[2]; single 1120 mg fasted (n = 6),(17%)
same,"Headache, number of subjects",[2]; single 1120 mg fasted (n = 6),1
same,"Nausea, % of subjects",[2]; single 1120 mg fasted (n = 6),(50%)
same,"Nausea, number of subjects",[2]; single 1120 mg fasted (n = 6),3
same,"tolerability, single dose","[2]; single dose 10 mg to 1120 mg, healthy young subjects",safe and well tolerated
same,receptor occupancy associated with CSF CT1812 levels,[3]; 560 mg dose,95%
same,projected receptor occupancy at average CSF concentrations,"[3]; 560 mg-840 mg dose range, 1.5 hr post-dose, equivalent mouse brain concentration",97-98%
same,receptor occupancy associated with CSF CT1812 levels,[3]; 840 mg dose,98%
same,CSF CT1812 concentration vs dose,"[3]; MAD 560 and 840 mg, at peak plasma concentrations",dose-dependent manner; also recorded: dose-dependent increases
same,blood-brain barrier penetration in humans,[3]; from CT1812 levels in CSF,penetrates the blood-brain barrier
same,concentration at 1.5 h,[3]; 560 mg daily,8 ng/mL
same,concentration at 1.5 h,[3]; 840 mg daily,23.3 ng/mL
same,cognitive scores before vs after treatment,"[4]; healthy elderly cohort, 560 mg, day zero vs day 14",similar
same,"COWAT (Trial 2), Mean (SD)","[4]; healthy elderly, 560 mg for 14 days (N = 7), Day 14, Day 0: 9.6 (4.2)",10.6 (5.1)
same,"COWAT (Trial 1), Mean (SD)","[4]; healthy elderly, 560 mg for 14 days (N = 7), Day 14, Day 0: 11.3 (5.7)",12.6 (4.5)
same,"COWAT (Trial 3), Mean (SD)","[4]; healthy elderly, 560 mg for 14 days (N = 7), Day 14, Day 0: 14.6 (5.7)",15.1 (3.7)
same,"RAVLT, Mean (SD)","[4]; healthy elderly, 560 mg for 14 days (N = 7), Day 14, Day 0: 17.3 (3.9)",18.7 (3.1)
same,"WMS-R (Digit Span), Mean (SD)","[4]; healthy elderly, 560 mg for 14 days (N = 7), Day 14, Day 0: 17.9 (3.3)",17.9 (3.3)
same,"CFT, Mean (SD)","[4]; healthy elderly, 560 mg for 14 days (N = 7), Day 14, Day 0: 18.4 (5.5)",19.7 (2.4)
same,"DSST, Mean (SD)","[4]; healthy elderly, 560 mg for 14 days (N = 7), Day 14, Day 0: 78.3 (11.0)",80 (9.6)
